# Measurements from patent publication US20040248904A1, “New piperidinylamino-thieno[2,3-d] pyrimidine compounds” (priority 2003, published 2004).
# Where two headings read alike, the source gives them in different places.
# Columns and labels:
# [1] = target: 5-HT2B (Homo sapiens, UniProt P41595); assay: 5-HT2B receptor affinity (K1, Table 1); format: binding
# Experimental: (§1) Compounds of the invention were made according to the respective syntheses noted above, and their activity and selectivity was determined. […] The compounds accordingly are expected to be useful as 5-HT2B receptor modulators, e.g., in the treatment of a wide variety of clinical conditions which are characterized by serotonin excess or absence, e.g., serotoninergic hypofunction or hyperfunction. Such conditions include those noted above, and conditions associated with vascular disorders, e.g., angina, migraine, pulmonary hypertension and systemic hypertension.
# [2] = Rat pharmacokinetics (% F, T1/2); conditions: in vivo; for bioavailability: oral, read-out: PK (% F) rat
# [3] = system: Rat Fundus; assay: Functional (Antagonist Rat Fundus); format: cell-based
# Experimental: as §1
# Chain of 5-HT2B (P41595 whole entry, species assumed): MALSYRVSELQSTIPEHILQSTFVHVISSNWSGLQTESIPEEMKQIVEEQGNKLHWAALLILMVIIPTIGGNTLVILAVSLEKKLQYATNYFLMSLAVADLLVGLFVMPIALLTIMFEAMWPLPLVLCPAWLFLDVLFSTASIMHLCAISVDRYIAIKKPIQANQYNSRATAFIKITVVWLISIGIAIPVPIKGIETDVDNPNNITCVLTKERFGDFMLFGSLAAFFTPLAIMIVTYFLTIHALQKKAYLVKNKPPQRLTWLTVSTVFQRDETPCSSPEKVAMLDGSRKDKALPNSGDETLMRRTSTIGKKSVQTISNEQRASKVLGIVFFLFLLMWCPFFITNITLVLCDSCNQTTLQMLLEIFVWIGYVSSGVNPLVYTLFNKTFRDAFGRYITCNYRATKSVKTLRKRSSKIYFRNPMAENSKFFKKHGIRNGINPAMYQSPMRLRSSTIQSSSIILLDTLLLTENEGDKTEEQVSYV
SMILES,Ki [1] [nM],further results
Fc1cccc(CN2CCC(Nc3ncnc4sc(Cl)cc34)CC2)c1 [Compound 2],0.79,–
CC(C)Cc1cc2c(NCCCNC(C)c3cccc(F)c3)ncnc2s1 (stereo not drawn) [Compound 22],150,–
Fc1cccc(C(N2CCC(Nc3ncnc4sc5c(c34)CCCC5)CC2)C(F)(F)F)c1 (stereo not drawn) [Compound 24],950,–
Fc1cccc(CNCCCNc2ncnc3sc4c(c23)CCCC4)c1 [Compound 13],17,–
CC(c1c(F)cc(F)cc1F)N1CCC(Nc2ncnc3sc4c(c23)CCCC4)CC1 (stereo not drawn) [Compound 19],72,–
CC(NCCCNc1ncnc2sc3c(c12)CCCC3)c1cccc(F)c1 (stereo not drawn) [Compound 17],52,–
CC(C)Cc1cc2c(NC3CCN(C(C)c4c(F)cccc4F)CC3)ncnc2s1 (stereo not drawn) [Compound 15],20,–
CC(c1cccc(F)c1)N1CCC(C)(Nc2ncnc3sc4c(c23)CCCC4)CC1 (stereo not drawn) [Compound 25],1200,–
c1ccc(CN2CCC(Nc3ncnc4sc5c(c34)CCCC5)CC2)cc1 [Compound 10],13,bioavailability [2]: 1.5%; IC50 [3]: 110 nM
CC(c1cccc(F)c1)N1CCC(Nc2ncnc3sccc23)CC1 (stereo not drawn) [Compound 11],14,–
CC(c1cccc(F)c1)N1CCC(Nc2ncnc3sc4c(c23)CCCC4)CC1 (stereo not drawn) [Compound 6],4,–
Cc1sc2ncnc(NC3CCN(CC4CCCCC4)CC3)c2c1C [Compound 9],7.8,–
CC(C)Cc1cc2c(NC3CCN(C(C)c4cc(F)cc(F)c4)CC3)ncnc2s1 (stereo not drawn) [Compound 7],4.2,bioavailability [2]: 2.8%; IC50 [3]: 5700 nM
CC(C)Cc1cc2c(NC3CCN(C(C)c4c(F)cc(F)cc4F)CC3)ncnc2s1 (stereo not drawn) [Compound 18],70,–
CC(C)(c1cccc(F)c1)N1CCC(Nc2ncnc3sc4c(c23)CCCC4)CC1 [Compound 12],15,–
CC(C)c1cc2c(NC3CCN(Cc4cc(F)cc(F)c4)CC3)ncnc2s1 [Compound 1],0.57,bioavailability [2]: 9.8%; IC50 [3]: 830 nM
CC(c1c(F)cccc1F)N1CCC(Nc2ncnc3sc4c(c23)CCCC4)CC1 (stereo not drawn) [Compound 16],44,–
Fc1cccc(CN2CCC(Nc3ncnc4sc5c(c34)CCCC5)CC2)c1 [Compound 4],2.3,IC50 [3]: 100 nM
CC(C)CC(c1cccc(F)c1)N1CCC(Nc2ncnc3sc4c(c23)CCCC4)CC1 (stereo not drawn) [Compound 20],84,–
CC(C#N)(c1cccc(F)c1)N1CCC(Nc2ncnc3sc4c(c23)CCCC4)CC1 (stereo not drawn) [Compound 21],120,–
Cc1sc2ncnc(NC3CCN(Cc4ccccc4C#N)CC3)c2c1C [Compound 23],210,–
CC(c1cc(F)cc(F)c1)N1CCC(Nc2ncnc3sc4c(c23)CCCC4)CC1 (stereo not drawn) [Compound 5],2.64,IC50 [3]: 1300 nM
Fc1cc(F)cc(CN2CCC(Nc3ncnc4sccc34)CC2)c1 [Compound 14],18,"half-life ([2]; iv, read-out: T1/2 (hr) rat iv (converted)): 0.3 h; IC50 [3]: 1600 nM"
CC(C)Cc1cc2c(NC3CCN(C(C)c4cccc(F)c4)CC3)ncnc2s1 (stereo not drawn) [Compound 3],0.97,"bioavailability [2]: 3.9%; half-life ([2]; po, read-out: T1/2 (hr) rat* po (converted)): 0.45 h; IC50 [3]: 5300 nM"
CC(C)Cc1cc2c(N3CCC(NCc4cc(F)cc(F)c4)CC3)ncnc2s1 [Compound 26],1300,–
Cc1sc2ncnc(NC3CCN(C(C)c4cccc(F)c4)CC3)c2c1C (stereo not drawn) [Compound 8],4.6,–
